Experimental data reported in ChEMBL document CHEMBL5108024, “New C-6 functionalized quinoline NorA inhibitors strongly synergize with ciprofloxacin against planktonic and biofilm growing resistant Staphylococcus aureus strains” (Eur J Med Chem, 2022).
In brackets after ≈: the same amount, converted by molar mass. Several values for one entry are separate records, joined by “and”; a condition that tells them apart may be missing. Equal entries are not always repeated. Activity calls are given as the source filed them. No cut-off for these calls is given here.

Assays:
Staphylococcus aureus [1] = experiment: Inhibition of EtBr efflux in ciprofloxacin-resistant Staphylococcus aureus 1199B overexpressing norA and harboring A116E grlA mutant assessed as reduction in fluorescence intensity at 50 uM measured for 5 mins by microplate reader analysis relative to control; type: functional
Staphylococcus aureus [2] = experiment: Inhibition of EtBr efflux in ciprofloxacin-resistant Staphylococcus aureus 1199B overexpressing norA and harboring A116E grlA mutant assessed as reduction in fluorescence intensity at 10 uM measured for 5 mins by microplate reader analysis relative to control; type: functional
Staphylococcus aureus [3] = experiment: Antibacterial activity against ciprofloxacin-resistant Staphylococcus aureus 1199B overexpressing norA and harboring A116E grlA mutant assessed as inhibition of bacterial growth by broth microdilution method; type: functional
Staphylococcus aureus [4] = experiment: Synergistic antibacterial activity against ciprofloxacin-resistant Staphylococcus aureus 1199B overexpressing norA and harboring A116E grlA mutant assessed as fold reduction in ciprofloxacin MIC at 6.25 uM by broth microdilution method; type: functional
Staphylococcus aureus [5] = experiment: Antibacterial activity against ciprofloxacin-susceptible wild type Staphylococcus aureus 1199 assessed as inhibition of bacterial growth by broth microdilution method; type: functional
Staphylococcus aureus [6] = experiment: Synergistic antibacterial activity against Staphylococcus aureus 1199B overexpressing norA and harboring A116E grlA mutant assessed as eight fold minimum potentiating concentration incubated in presence of ciprofloxacin by checkerboard assay; type: functional
Staphylococcus aureus [7] = experiment: Synergistic antibiofilm activity against Staphylococcus aureus 1199B overexpressing norA and harboring A116E grlA mutant assessed as biofilm eradication by measuring ciprofloxacin MBEC at 3.13 ug/ml incubated for 24 hrs by Calgary biofilm device assay; type: functional; settings: dose 3.13 µg/ml
Staphylococcus aureus [8] = experiment: Synergistic antibiofilm activity against wild type Staphylococcus aureus 1199 assessed as biofilm eradication by measuring ciprofloxacin MBEC at 3.13 ug/ml incubated for 24 hrs by Calgary biofilm device assay; type: functional; settings: dose 3.13 µg/ml
Staphylococcus aureus [9] = experiment: Synergistic bactericidal activity against Staphylococcus aureus 1199B overexpressing norA and harboring A116E grlA mutant assessed as reduction in bacterial count by measuring log reduction in colony forming count per ml at 6.25 ug/ml incubated for 4 hrs in presence of ciprofloxacin at 0.25 to 1 times MIC by time kill assay; type: functional; settings: dose 6.25 µg/ml
[10] = Cytotoxicity against human THP-1 cells assessed as cell viability at 3.13 ug/ml incubated for 24 hrs by MTT assay relative to control; type: toxicity, cell-based; settings: at 3.13 µg/mL, read-out: Activity
[11] = Cytotoxicity against human THP-1 cells assessed as cell viability at 12.5 ug/ml incubated for 24 hrs by MTT assay relative to control; type: toxicity, cell-based; settings: at 12.5 µg/mL, read-out: Activity
Staphylococcus aureus [12] = experiment: Antibacterial activity against Staphylococcus aureus K2378 harbouring norA promoting and coding region assessed as inhibition of bacterial growth by broth microdilution method; type: functional
Staphylococcus aureus [13] = experiment: Antibacterial activity against norA deleted Staphylococcus aureus K1902 assessed as inhibition of bacterial growth by broth microdilution method; type: functional
Staphylococcus aureus [14] = experiment: Synergistic antibacterial activity against Staphylococcus aureus 1199B overexpressing norA and harboring A116E grlA mutant assessed as four fold minimum potentiating concentration incubated in presence of ciprofloxacin by checkerboard assay; type: functional
Staphylococcus aureus [15] = experiment: Synergistic antibacterial activity against Staphylococcus aureus K2378 overexpressing norA assessed as fold reduction in ciprofloxacin MIC at 0.2 to 12.5 ug/ml by checkerboard assay; type: functional; settings: dose 0.2-12.5 µg/ml
[16] = Cytotoxicity against human A549 cells assessed as cell viability at 12.5 ug/ml incubated for 24 hrs by MTT assay relative to control; type: toxicity, cell-based; settings: at 12.5 µg/mL, read-out: Activity
[17] = Cytotoxicity against human A549 cells assessed as cell viability at 3.13 ug/ml incubated for 24 hrs by MTT assay relative to control; type: toxicity, cell-based; settings: at 3.13 µg/mL, read-out: Activity
[18] = Cytotoxicity against human THP-1 cells assessed as cell viability incubated for 24 hrs by MTT assay; type: toxicity, cell-based
Staphylococcus aureus [19] = experiment: Synergistic antibiofilm activity against norA deleted Staphylococcus aureus K1902 assessed as biofilm eradication by measuring ciprofloxacin MBEC at 3.13 ug/ml incubated for 24 hrs by Calgary biofilm device assay; type: functional; settings: dose 3.13 µg/ml
Staphylococcus aureus [20] = experiment: Synergistic antibiofilm activity against Staphylococcus aureus 1199B overexpressing norA and harboring A116E grlA mutant assessed as biofilm eradication by measuring fold reduction in ciprofloxacin MBEC at 3.13 ug/ml incubated for 24 hrs by Calgary biofilm device assay; type: functional; settings: dose 3.13 µg/ml
Staphylococcus aureus [21] = experiment: Synergistic antibiofilm activity against wild type Staphylococcus aureus 1199 assessed as biofilm eradication by measuring fold reduction in ciprofloxacin MBEC at 3.13 ug/ml incubated for 24 hrs by Calgary biofilm device assay; type: functional; settings: dose 3.13 µg/ml
Staphylococcus aureus [22] = experiment: Synergistic bactericidal activity against Staphylococcus aureus 1199B overexpressing norA and harboring A116E grlA mutant assessed as reduction in bacterial count at 6.25 ug/ml incubated for 6 hrs in presence of ciprofloxacin at MIC by time kill assay; type: functional, organism-based; settings: dose 6.25 µg/ml
Staphylococcus aureus [23] = experiment: Potentiation of ciprofloxacin-induced antibacterial activity against Staphylococcus aureus 1199B overexpressing norA and harboring A116E grlA mutant assessed as post-antibiotic effect by measuring log reduction in colony forming unit per ml at 6.25 ug/ml preincubated for 1 hr followed by compound washout and measured after 5 hrs; type: functional; settings: dose 6.25 µg/ml
Staphylococcus aureus [24] = experiment: Potentiation of ciprofloxacin-induced antibacterial activity against Staphylococcus aureus 1199B overexpressing norA and harboring A116E grlA mutant assessed as time for post-antibiotic effect at 6.25 ug/ml preincubated for 1 hr followed by compound washout and measured after 5 hrs; type: functional; settings: dose 6.25 µg/ml
Staphylococcus aureus [25] = experiment: Synergistic antibacterial activity against Staphylococcus aureus 1199B overexpressing norA and harboring A116E grlA mutant assessed as fold reduction in ciprofloxacin MIC at 0.2 to 0.39 ug/ml by checkerboard assay; type: functional; settings: dose 0.2-0.39 µg/ml

CCCOc1ccc(-c2cc(OCCN3CCCCCC3)c3cc(OC(F)(F)F)ccc3n2)cc1
inhibition (Staphylococcus aureus [1]): 84.9%
inhibition (Staphylococcus aureus [2]): 70.4%
MIC (Staphylococcus aureus [3]): > 512 µM

CCCOc1ccc(-c2cc(OCCN(CC)CC)c3cc(OC(F)(F)F)ccc3n2)cc1
inhibition (Staphylococcus aureus [1]): 83%
inhibition (Staphylococcus aureus [2]): 69.2%
MIC (Staphylococcus aureus [3]): > 541 µM

CCCOc1ccc(-c2cc(OCCN(CC)CC)c3cc(C(F)(F)F)ccc3n2)cc1
inhibition (Staphylococcus aureus [1]): 73.5%

CCCOc1ccc(-c2cc(OCCN3CCCCC3)c3cc(C#N)ccc3n2)cc1
inhibition (Staphylococcus aureus [1]): 77.8%

CCCOc1ccc(-c2cc(OCCN3CCCCC3)c3cc(Br)ccc3n2)cc1
inhibition (Staphylococcus aureus [1]): 71.6%

CCCOc1ccc(-c2cc(OCCN3CCCCC3)c3cc(OC(C)C)ccc3n2)cc1
inhibition (Staphylococcus aureus [1]): 65.3%

CCCOc1ccc(-c2cc(OCCN(CC)CC)c3cc(OCCC)ccc3n2)cc1
inhibition (Staphylococcus aureus [1]): 67.1%

CCCOc1ccc(-c2cc(OCCN(CC)CC)c3cc(SC)ccc3n2)cc1
inhibition (Staphylococcus aureus [1]): 53.3%

CCCOc1ccc(-c2cc(OCCN3CCCCCC3)c3cc(Br)ccc3n2)cc1
inhibition (Staphylococcus aureus [1]): 76.4%

CCCOc1ccc(-c2cc(OCCN3CCCCC3)c3cc(NCc4ccccc4)ccc3n2)cc1
inhibition (Staphylococcus aureus [1]): 40.6%

CCCOc1ccc(-c2cc(OCCN(CC)CC)c3cc(OC(F)F)ccc3n2)cc1
inhibition (Staphylococcus aureus [1]): 71.9%

CCCOc1ccc(-c2cc(OCCN3CCCCC3)c3cc(C(F)(F)F)ccc3n2)cc1
inhibition (Staphylococcus aureus [1]): 87.4%
inhibition (Staphylococcus aureus [2]): 70.1%
MIC (Staphylococcus aureus [3]): > 50 µg/mL and > 545 µM
fold change (FC) (Staphylococcus aureus [4]): 8
MIC (Staphylococcus aureus [5]): > 50 µg/mL
MPC (Staphylococcus aureus [6]): 3.13 µg/mL
MBEC (Staphylococcus aureus [7]): >50 µg/mL
MBEC (Staphylococcus aureus [8]): 0.07 µg/mL

CCCOc1ccc(-c2cc(OCCN3CCCCC3)c3cc(OC(F)F)ccc3n2)cc1
log(activity) (Staphylococcus aureus [9]): 3
viability at 24 h, 3.13 ug/ml [10]: 67.7%
viability at 24 h, 12.5 ug/ml [11]: 9.4%
inhibition (Staphylococcus aureus [1]): 80.2%
inhibition (Staphylococcus aureus [2]): 85%
MIC (Staphylococcus aureus [3]): > 50 µg/mL and > 548 µM
fold change (FC) (Staphylococcus aureus [4]): >=8
MIC (Staphylococcus aureus [5]): > 50 µg/mL
MIC (Staphylococcus aureus [12]): 25 µg/mL (≈ 54.8 µM)
MIC (Staphylococcus aureus [13]): 25 µg/mL (≈ 54.8 µM)
MPC (Staphylococcus aureus [14]): 0.39 µg/mL
MPC (Staphylococcus aureus [6]): 0.78 µg/mL
fold change (FC) (Staphylococcus aureus [15]): 4
viability at 24 h, 12.5 ug/ml [16]: 100%
viability at 24 h, 3.13 ug/ml [17]: 100%
CC50 at 24 h [18]: > 3.13 µg/mL
MBEC (Staphylococcus aureus [7]): 0.63 µg/mL
MBEC (Staphylococcus aureus [8]): 0.07 µg/mL
MBEC (Staphylococcus aureus [19]): 40 µg/mL
fold change (FC) (Staphylococcus aureus [20]): 512
fold change (FC) (Staphylococcus aureus [21]): 286
Activity (Staphylococcus aureus [22]): Active
log(activity) (Staphylococcus aureus [23]): 1
Time (Staphylococcus aureus [24]): 1.2 h

CCCOc1ccc(-c2cc(OCCN3CCCCC3)c3cc(OC)ccc3n2)cc1
inhibition (Staphylococcus aureus [1]): 97.6%
MIC (Staphylococcus aureus [3]): 238 µM (≈ 100 µg/mL)
MPC (Staphylococcus aureus [14]): 0.78 µg/mL
MPC (Staphylococcus aureus [6]): 1.56 µg/mL
fold change (FC) (Staphylococcus aureus [25]): 2
MBEC (Staphylococcus aureus [7]): 2.5 µg/mL
MBEC (Staphylococcus aureus [8]): 0.07 µg/mL
fold change (FC) (Staphylococcus aureus [21]): 286

CCCOc1ccc(-c2cc(OCCN3CCCCCC3)c3cc(OC(C)C)ccc3n2)cc1
inhibition (Staphylococcus aureus [1]): 75.3%
